Source: ChEMBL document CHEMBL5385959, “Trifluoroacetic acid-mediated synthesis of xanthene constructs and their extensive anti-tuberculosis evaluation” (RSC Med Chem, 2024)
≈ marks a conversion by molar mass, not a printed value. Calls of active or inactive are those of the source. The calls are words filed in the database; no cut-off is given here.

Experiments:
[1] = test system: Mycobacterium tuberculosis; experiment: Antibacterial activity against Mycobacterium tuberculosis H37Rv assessed as reduction in bacterial growth incubated for 14 days by CLSI protocol based method; assay type: functional; settings: 336 h, time 14 day
Escherichia coli = experiment: Antibacterial activity against Escherichia coli assessed as reduction in bacterial growth incubated for 24 hrs by broth dilution method; assay type: functional
Bacillus subtilis = experiment: Antibacterial activity against Bacillus subtilis assessed as reduction in bacterial growth incubated for 24 hrs by broth dilution method; assay type: functional
[2] = test system: Mycobacterium tuberculosis; experiment: Antibacterial activity against Mycobacterium tuberculosis H37Ra assessed as reduction in bacterial growth incubated for 14 days by CLSI protocol based method; assay type: functional; settings: 336 h, time 14 day
Pseudomonas aeruginosa = experiment: Antibacterial activity against Pseudomonas aeruginosa assessed as reduction in bacterial growth incubated for 24 hrs by broth dilution method; assay type: functional
[3] = Cytotoxicity against mouse RAW 264 cells assessed as reduction in cell viability at 150 uM incubated for 48 hrs by MTT assay; assay type: functional
[4] = test system: Mycobacterium tuberculosis; experiment: Bactericidal activity Mycobacterium tuberculosis H37Rv incubated for 2 days by time kill assay; assay type: functional, organism-based; settings: time 2.0 day
A549 = experiment: Cytotoxicity against human A549 cells assessed as reduction in cell viability at 200 uM incubated for 48 hrs by MTT assay; assay type: functional
[5] = test system: Mycobacterium tuberculosis; experiment: Synergistic antibacterial activity against Mycobacterium tuberculosis H37Rv assessed as ethambutol MIC by broth microdilution method; assay type: functional
[6] = test system: Mycobacterium tuberculosis; experiment: Synergistic antibacterial activity against Mycobacterium tuberculosis H37Rv assessed as reduction in microbial growth in presence of ethambutol by broth microdilution method; assay type: functional
[7] = test system: Mycobacterium tuberculosis; experiment: Antibacterial activity against GFP-tagged Mycobacterium tuberculosis H37Rv assessed as reduction in GFP expression at half times MIC incubated for 7 days by confocal microscopic analysis; assay type: functional, organism-based; settings: time 7.0 day
[8] = test system: Mycobacterium tuberculosis; experiment: Bactericidal activity Mycobacterium tuberculosis H37Rv incubated for 15 days by time kill assay; assay type: functional, organism-based; settings: time 15.0 day
HEK293 = experiment: Cytotoxicity against HEK293 cells assessed as reduction in cell viability at 100 uM incubated for 48 hrs by MTT assay; assay type: toxicity, cell-based; settings: human, hek293, 48 h
[9] = test system: Mycobacterium tuberculosis; experiment: Bactericidal activity Mycobacterium tuberculosis H37Rv at 4 times MIC incubated for 7 days by time kill assay; assay type: functional, organism-based; settings: time 7.0 day
[10] = test system: Mycobacterium tuberculosis; experiment: Synergistic antibacterial activity against Mycobacterium tuberculosis H37Rv assessed as log reduction in CFU measured for 2 days in presence of isoniazid by time kill assay; assay type: functional; settings: time 2 day
[11] = test system: Mycobacterium tuberculosis; experiment: Bactericidal activity Mycobacterium tuberculosis H37Rv assessed as reduction in bacterial growth incubated for 2 days by time kill assay; assay type: functional; settings: 48 h, time 2 day
[12] = test system: Mycobacterium tuberculosis; experiment: Synergistic antibacterial activity against Mycobacterium tuberculosis H37Rv assessed as reduction in microbial growth in presence of isoniazid by broth microdilution method; assay type: functional
[13] = test system: Mycobacterium tuberculosis; experiment: Synergistic antibacterial activity against Mycobacterium tuberculosis H37Rv assessed as isoniazid MIC by broth microdilution method; assay type: functional
[14] = test system: Mycobacterium tuberculosis; experiment: Synergistic antibacterial activity against Mycobacterium tuberculosis H37Rv assessed as reduction in microbial growth in presence of rifampicin by broth microdilution method; assay type: functional
[15] = test system: Mycobacterium tuberculosis; experiment: Synergistic antibacterial activity against Mycobacterium tuberculosis H37Rv assessed as log reduction in CFU measured for 4 days in presence of isoniazid by time kill assay; assay type: functional; settings: time 4 day
[16] = test system: Mycobacterium tuberculosis; experiment: Antibacterial activity against Mycobacterium tuberculosis H37Rv assessed as reduction in bacterial growth by broth microdilution method; assay type: functional
[17] = test system: Mycobacterium tuberculosis; experiment: Synergistic antibacterial activity against Mycobacterium tuberculosis H37Rv assessed as rifampicin MIC by broth microdilution method; assay type: functional
[18] = test system: Mycobacterium tuberculosis; experiment: Bactericidal activity Mycobacterium tuberculosis assessed as reduction in bacterial growth incubated for 28 days by broth microdilution method; assay type: functional; settings: 672 h, time 28 day
[19] = test system: Mycobacterium tuberculosis; experiment: Bactericidal activity Mycobacterium tuberculosis H37Rv assessed as log reduction in CFU at 2 times MIC incubated for 2 days by time kill assay; assay type: functional; settings: time 2 day
[20] = test system: Mycobacterium tuberculosis; experiment: Bactericidal activity Mycobacterium tuberculosis H37Rv assessed as log reduction in CFU at 2 times MIC incubated for 5 to 10 days by time kill assay; assay type: functional, organism-based; settings: time 5-10 day
[21] = test system: Mycobacterium tuberculosis; experiment: Bactericidal activity Mycobacterium tuberculosis H37Rv by time kill assay; assay type: functional, organism-based; settings: time 16.0 day
[22] = test system: Mycobacterium tuberculosis; experiment: Bactericidal activity Mycobacterium tuberculosis H37Rv assessed as log reduction in CFU at 16 times MIC incubated for 2 to 6 days by time kill assay; assay type: functional; settings: time 2-6 day
[23] = test system: Mycobacterium tuberculosis; experiment: Bactericidal activity Mycobacterium tuberculosis H37Rv assessed as log reduction in CFU at 16 times MIC incubated for 8 days by time kill assay; assay type: functional; settings: time 8 day
[24] = test system: Mycobacterium tuberculosis; experiment: Bactericidal activity Mycobacterium tuberculosis H37Rv assessed as log reduction in CFU incubated for 2 days by time kill assay; assay type: functional; settings: time 2 day

Compound	MIC [1] [µg/mL]	MIC (Escherichia coli) [µg/mL]	MIC (Bacillus subtilis) [µg/mL]	MIC [2] [µg/mL]	MIC (Pseudomonas aeruginosa) [µg/mL]	other results
O=C1CCCC2=C1C(c1cc(O)ccc1O)C1=C(CCCC1=O)O2	64 (≈ 196 µM)	> 128	> 128	64 (≈ 196 µM)	> 128	–
CC1(C)CC(=O)C2=C(C1)OC1=C(C(=O)CC(C)(C)C1)C2c1cccc(Br)c1	64 (≈ 149 µM)	> 128	> 128	64 (≈ 149 µM)	> 128	–
CC1(C)CC(=O)C2=C(C1)OC(N)=C(C#N)C2c1cccc(O)c1 (configuration not stated)	> 64	–	–	–	–	–
O=C1CCCC2=C1C(c1ccc([N+](=O)[O-])cc1[N+](=O)[O-])C1=C(CCCC1=O)O2	64 (≈ 167 µM)	> 128	> 128	64 (≈ 167 µM)	> 128	–
O=C1CCCC2=C1C(c1cccc(O)c1)C1=C(CCCC1=O)O2	64 (≈ 206 µM)	> 128	> 128	64 (≈ 206 µM)	> 128	–
CC1(C)CC(=O)C2=C(C1)OC1=C(C(=O)CC(C)(C)C1)C2c1ccccc1	8 (≈ 22.8 µM)	> 128	> 128	8 (≈ 22.8 µM)	> 128	Activity [3]: >75%; Activity [4]: Active; Activity (A549): >75%; MIC [5]: 0.312 µg/mL; MIC [6]: 0.25 µg/mL; Activity [7]: Active; Activity [8]: inactive; Activity (HEK293): > 75%; Activity [9]: Active; Activity [10]: 2 log10CFU; MIC [11]: 8 µg/mL (≈ 22.8 µM); MIC [12]: 0.078 µg/mL; MIC [13]: 0.078 µg/mL; MIC [14]: 0.009 µg/mL; Activity [15]: 1 log10CFU; MIC [16]: 8 µg/mL (≈ 22.8 µM); MIC [17]: 0.009 µg/mL; MBC [18]: 8 µg/mL (≈ 22.8 µM); Activity [19]: 3 log10CFU; Activity [20]: Active
N#CC1=C(N)Oc2c(c(=O)oc3ccccc23)C1c1ccc(O)cc1 (configuration not stated)	> 64	–	–	–	–	–
COc1ccccc1C1C2=C(CCCC2=O)OC2=C1C(=O)CCC2	64 (≈ 197 µM)	> 128	> 128	64 (≈ 197 µM)	> 128	–
O=C1CCCC2=C1C(c1cccc(Cl)c1)C1=C(CCCC1=O)O2	64 (≈ 195 µM)	> 128	> 128	64 (≈ 195 µM)	> 128	–
COc1cc(C2C3=C(CCCC3=O)OC3=C2C(=O)CCC3)ccc1O	64 (≈ 188 µM)	> 128	> 128	64 (≈ 188 µM)	> 128	–
CC1(C)CC(=O)C2=C(C1)OC1=C(C(=O)CC(C)(C)C1)C2c1cccc(Cl)c1	64 (≈ 166 µM)	> 128	> 128	64 (≈ 166 µM)	> 128	–
O=C1CCCC2=C1C(c1ccc([N+](=O)[O-])cc1)C1=C(CCCC1=O)O2	64 (≈ 189 µM)	> 128	> 128	64 (≈ 189 µM)	> 128	–
COc1cccc(C2C3=C(CCCC3=O)OC3=C2C(=O)CCC3)c1	8 (≈ 24.7 µM)	> 128	> 128	8 (≈ 24.7 µM)	> 128	Activity [21]: Dose-Dependent Effect; Activity [3]: >75%; Activity (A549): >75%; MIC [5]: 0.312 µg/mL; Activity [22]: 2 log10CFU; MIC [6]: 0.25 µg/mL; Activity [7]: Active; Activity (HEK293): > 75%; Activity [23]: 5 log10CFU; Activity [24]: >2 log10CFU; MIC [11]: 8 µg/mL (≈ 24.7 µM); MIC [12]: 0.25 µg/mL; MIC [13]: 0.078 µg/mL; MIC [14]: 0.5 µg/mL; MIC [16]: 8 µg/mL (≈ 24.7 µM); MIC [17]: 0.009 µg/mL; MBC [18]: 8 µg/mL (≈ 24.7 µM)
COc1ccc(C2C3=C(CCCC3=O)OC3=C2C(=O)CCC3)cc1O	64 (≈ 188 µM)	> 128	> 128	64 (≈ 188 µM)	> 128	–
CC1(C)CC(=O)C2=C(C1)OC1=C(C(=O)CC(C)(C)C1)C2c1cccc([N+](=O)[O-])c1	64 (≈ 162 µM)	> 128	> 128	64 (≈ 162 µM)	> 128	–
NNC(=O)c1ccncc1 [ISONIAZID]	0.625 (≈ 4.56 µM)	–	–	0.019 (≈ 0.139 µM)	–	Activity [7]: Active; MIC [16]: 8 µg/mL (≈ 58.3 µM)
CC[C@@H](CO)NCCN[C@@H](CC)CO [ETHAMBUTOL]	1.25 (≈ 6.12 µM)	–	–	0.019 (≈ 0.093 µM)	–	Activity [7]: Active; MIC [16]: 8 µg/mL (≈ 39.2 µM)
